Test results taken from patent US20110091570A1, “Compositions and Devices for Antisepsis and Anticoagulation” (priority 2008, published 2011).
Values joined by “and” are separate entries in the source; they are usually repeats but may differ in a detail not shown here. Equal entries are not always repeated.

Tests used:
[1] = test system: Human Blood; conditions: Stief et al. [Ref 27]; cited from earlier work
[2] = test system: citrate blood; experiment: Activated partial thromboplastin time (aPTT), Pathromtin SL test; format: biochemical, human; conditions: for aPTT / aPTT (sec): Example 6, single volunteer; for Activated partial thromboplastin time (aPTT) / Activated partial thromboplastin time (aPTT), mean value: Example 7; for Activated partial thromboplastin time (aPTT): individual subjects 1-11; for Activated partial thromboplastin time (aPTT), mean value: mean of 11 subjects
Protocol: Whole blood was taken from volunteers and enriched with trisodium citrate (0.3 mL of a 0.106 molar solution per 3 mL whole blood) (S-Monovette®, Sarstedt, Nümbrecht, Germany). Routine coagulation tests were performed on the following samples:
The following commercial coagulation tests were performed according to the prescription of the manufacturer: prothrombin time (PT) was determined using Thromborel® S test (Dade Behring GmbH, Marburg, Germany); activated partial thromboplastin time (aPTT) was determined using Pathromtin* SL test (Dade Behring GmbH, Marburg, Germany); and thrombin time (TT) was determined using BC Thrombin Reagent test (Dade Behring GmbH, Marburg, Germany).
Whole blood was taken from a single volunteer and enriched with trisodium citrate (0.3 mL of a 0.106 molar solution per 3 mL whole blood) (S-Monovette®, Sarstedt, Nümbrecht, Germany). Portions of 1.8 mL citrate blood were mixed with 0.2 mL NCT in 0.9% saline. The following final (after dilution in blood) NCT concentrations were tested separately: 1% (55 mM); 0.5% (27.5 mM); 0.25% (13.75 mM); 0.1% (5.5 mM); 0.05% (2.75 mM); 0.025% (1.375 mM); and 0.01% (0.55 mM). A control without NCT was performed in parallel. The following commercial coagulation tests were performed according to the prescription of the manufacturer: prothrombin time (PT) was determined using Thromborel® S test (Dade Behring GmbH, Marburg, Germany), activated partial thromboplastin time (aPTT) was determined using Pathromtin* SL test (Dade Behring GmbH, Marburg, Germany); thrombin time (TT) was determined using BC Thrombin Reagent test (Dade Behring GmbH, Marburg, Germany); and fibrinogen was determined using Multifibren* U test (Dade Behring GmbH, Marburg, Germany).
(§1) Whole blood was taken from 11 volunteers and enriched with trisodium citrate (0.3 mL of a 0.106 molar solution per 3 mL whole blood) (S-Monovette®, Sarstedt, Nümbrecht, Germany). Commercial coagulation tests (as described in Example 6) were performed with the following samples: […]

[3] = test system: omniresistant Pseudomonas aeruginosa; conditions: NCT irrigations, three patients [Ref 18]; cited from earlier work
[4] = test system: external otitis; conditions: human external otitis [Ref 15]; cited from earlier work
[5] = test system: Swiss mice; experiment: Intraperitoneal injection in Swiss mice; format: in vivo; conditions: 1% NCT i.p., a further study
[6] = test system: rabbit eyes; conditions: rabbit eyes [Ref. 13]; cited from earlier work
[7] = test system: citrate blood; experiment: International normalized ratio (INR); format: biochemical, human; conditions: Example 7; for International normalized ratio (INR): individual subjects 1-11; for International normalized ratio (INR), mean value: mean of 11 subjects
Protocol: as §1

## O=S(=O)(O)CCNCl [NCT, N-chlorotaurine]
[1]
  concentration with anticoagulant effect (not below): 2 to 3 mmol/L
[2]; Example 5, 1% NCT final concentration in citrate blood
  activated partial thromboplastin time: above the test limits
[2]; 0.01% (0.55 mM) NCT final
  aPTT: 30.6 s
[2]; 0.025% (1.375 mM) NCT final
  aPTT: 37.7 s
[2]; 0.05% (2.75 mM) NCT final
  aPTT: 71.3 s
[2]; 0.1% (5.5 mM) NCT final
  aPTT: 371.4 s
[2]; 0.25% (13.75 mM) NCT final
  aPTT (sec): >limit
[2]; 0.5% (27.5 mM) NCT final
  aPTT (sec): >limit
[2]; 1% (55 mM) NCT final
  aPTT (sec): >limit
[2]; 0.01% NCT
  Activated partial thromboplastin time (aPTT): 39 sec (2×) and 41 sec and 32 sec and 47 sec and 37 sec (2×) and 35 sec and 40 sec and 36 sec and 31 sec
  Activated partial thromboplastin time (aPTT), mean value: 37.6 s
[2]; 0.025% NCT
  Activated partial thromboplastin time (aPTT): 93 sec and 113 sec and 49 sec and 238 sec and 142 sec and 129 sec and 91 sec (2×) and 167 sec and 70 sec and 71 sec
  Activated partial thromboplastin time (aPTT), mean value: 114.0 s
[3]
  eradication of bacteria from the urinary bladder: possible to eradicate bacteria from the urinary bladder
[4]
  efficacy versus standard medication: more effective than a standard medication
[5]
  tolerated intraperitoneal injection: tolerated up to one mL 1% NCT
[6]
  tolerability in topical and localized applications: relatively safe and well-tolerated
[7]; 0.01% NCT
  International normalized ratio (INR): 1.2 (5×) and 1.3 (3×) and 1.1 (3×)
  International normalized ratio (INR), mean value: 1.2
[7]; 0.025% NCT
  International normalized ratio (INR): 2.6 and 3.3 (2×) and 1.5 and 6 and 4.2 and 2.8 and 4.4 and 2 and 2.9 and 2.3
  International normalized ratio (INR), mean value: 3.2
